Series [1] concerns HKB-11 lymphoma cells. Kind of series: ROS production, H2DCFDA assay. Type of series: cell-based, human. The following applies: 4 h. As to the method: Briefly, HKB-11 lymphoma cells (2.5 × 10^5 cells/mL) were cultured in a 96-well plate, allowed to adhere overnight, and treated with 20 μM H2DCFDA for 45 min to assess ROS levels. The dye solution was removed, and cells were washed with 1× buffer. Next, the cells were treated with N (8000 μM), N (4000 μM), UB (500 μM), UB (250 μM), N/UB (3500 μM), N/UB (1750 μM), N/UB (5750 μM), N/UB (2875 μM), Dox (4 μM), and tert-butyl hydroperoxide (TBHP) (150 μM) and then incubated at 37 °C for 4 h. Finally, the plate was immediately read at Ex/Em = 485/535 nm using a microplate spectrophotometer (BMG CLARIOstar, VIC, Australia). The fold change in ROS production was determined relative to the untreated control (cells treated with the supplement buffer according to the manufacturer’s protocol).

The conditions of series [2]: cited from earlier work. From the text:
Both N and UB face challenges regarding bioavailability. […] Thus, formulation strategies or delivery systems to enhance systemic exposure warrant exploration in future studies.

Series [3] deals with HKB-11 lymphoma cells. The series can be described thus: Label-free bottom-up LC-MS proteomics, differentially expressed proteins. Type of series: cell-based, human. As to the method:
The HKB-11 lymphoma cells were placed in 6-well plates at a density of 3.0 × 10^6 cells/well and incubated overnight at 37 °C in 5% CO2. […] Treatments were performed in triplicate and incubated for 24 h under the same conditions. Following incubation, each flask of cells was subjected to a 0.25% w/v trypsin treatment for 4 min at 37 °C, and the cell culture medium was collected. Additionally, an equal volume of DMEM F-12 medium (containing 10% FBS) was added before mixing with the previously collected media to neutralise the trypsin. The cells were spun in a centrifuge at 500× g for 5 min at RT. The cell pellets were washed twice with ice-cold PBS and spun again at 500× g for 5 min. These cell pellets were then suspended in a lysis buffer that included 1 μL of universal nuclease (Easypep Mini Kit) (Thermo Fisher Scientific, Sydney, NSW, Australia) and supplemented with Halt™ Protease and Phosphatase Inhibitor Cocktail in a 1:100 ratio (Thermo Fisher Scientific, Sydney, NSW, Australia). The cells were gently pipetted 10–15 times to reduce the sample’s viscosity and then placed on ice for 20 min. The lysate was centrifuged at 14,000 rpm for 20 min at 4 °C, and the resulting liquid was collected.
The Pierce™ Rapid Gold BCA Protein Assay Kit (#A53226, Thermo Fisher Scientific, Sydney, NSW, Australia) was used to determine the protein concentration of the cell lysate in triplicate, using a bovine serum albumin (BSA) standard, following the manufacturer’s protocol. In brief, 1 μL of each sample replicate was diluted 1:20 in Milli-Q water, along with 20 μL of each standard, and then placed in a 96-well plate with 200 μL of working reagent in each well. Samples were diluted to a concentration within the 20–2000 μg/mL working range. The plate was thoroughly mixed on a plate shaker for 30 s and incubated at RT for 5 min, and then the absorbance was measured within 20 min at 480 nm using a microplate spectrophotometer (BMG CLARIOstar, Melbourne, VIC, Australia). The blank absorbance was subtracted from all other readings of standards and samples, and the sample concentration was determined using the established BSA standard calibration curve. The samples were then stored at −80 °C for further analysis.
The protein samples (100 μg) were subjected to chemical and enzymatic sample processing using the EasyPep™ Mini MS Sample Prep Kit following the manufacturer’s instructions (Thermo Fisher Scientific, Sydney, NSW, Australia) and as reported in the literature. Briefly, the sample volume was adjusted to 100 μL using a lysis buffer in a microcentrifuge tube. Subsequently, the reduction and alkylation solutions (50 μL each) were introduced, gently mixed, and incubated at 95 °C with a heat block for 10 min. The samples were allowed to cool to RT, after which 50 μL of the reconstituted trypsin/lys-C protease mixture was added to each sample and incubated with shaking at 37 °C for 3 h. Following incubation, 50 μL of a digestion stop solution was gently mixed into the samples. Peptide clean-up columns were used to remove both hydrophilic and hydrophobic impurities. The resulting clean peptide samples were dehydrated using a vacuum centrifuge and reconstituted in 100 μL of a 0.1% formic acid solution in water for LC–MS analysis. Subsequently, these samples were carefully transferred to maximum recovery sample vials (Waters Corp., Milford, MA, USA).
Label-free, bottom-up proteomic quantification was performed using a micro high-performance liquid chromatography system (Waters M-Class) coupled with a SCIEX™ TripleTOF® 6600 quadrupole time-of-flight mass spectrometer (SCIEX, Framingham, MA, USA), operated in positive electrospray ionisation mode (ESI+). […]

The mark [4] stands for this setting: HKB-11, N 3200 μM, 24 h, vs untreated control, Q ≤ 0.05.
[5] abbreviates: HKB-11, UB 300 μM, 24 h, vs untreated control, Q ≤ 0.05.

The values below come from article PMC12295306, “Gut Microbial Postbiotics as Potential Therapeutics for Lymphoma: Proteomics Insights of the Synergistic Effects of Nisin and Urolithin B Against Human Lymphoma Cells” (International Journal of Molecular Sciences, 2025).

Regarding “Nisin (ITSISLCTPGCKTGALMGCNMKTATCHCSIHVSK; Lantibiotic nisin-A; UniProt P13068 24-57, looked up) [34-amino-acid lantibiotic peptide (bacteriocin) produced by Lactococcus lactis; purchased]”, the “ROS levels compared to the untreated control” value in series [1] (HKB-11, 8000 μM, p ≤ 0.01, n = 3) was “statistically significant increase”. Also, in series [2], the Proteolytic stability entry is listed as “susceptibility to proteolytic degradation”, the “Stability in the gastrointestinal tract” value is on record as “degraded in the gastrointestinal tract” and the Systemic absorption entry is “low systemic absorption”. Also, in series [3] (setting [4]), the “Log2FC CDK4 (Cyclin-dependent kinase 4)” value is recorded as −1.26, the “Log2FC CTNNA1 (Catenin alpha-1)” value is −0.97, the “Log2FC HDAC1 (Histone deacetylase 1)” value is −0.67 and the “Log2FC LARP1 (La-related protein 1)” value was −1.27. Also, in series [3] (setting [4]), the “Log2FC MAPK14 (Mitogen-activated protein kinase 14)” value is reported as −0.80; the “Log2FC NUP62 (Nuclear pore glycoprotein p62)” value was −0.60; the “Log2FC POLR2E (DNA-directed RNA polymerases I, II, and III subunit RPABC1)” value is on record as −0.62; the “Log2FC POLR2G (DNA-directed RNA Polymerase II subunit RPB7)” value is −0.63. In series [3] (setting [4]), the “Log2FC POLR2H (DNA-directed RNA polymerases I, II, and III subunit RPABC3)” value is on record as −0.59; the “Log2FC PPP1R14B (Protein phosphatase 1 regulatory subunit 14B)” value is reported as −0.93; the “Log2FC PRC1 (Protein regulator of cytokinesis 1)” value is on record as −0.72; the “Log2FC RFC1 (Replication factor C subunit 1)” value was −0.85. Further, in series [3] (setting [4]), the “Log2FC RFC2 (Replication factor C subunit 2)” value was −0.59, the “Log2FC SRPK2 (SRSF protein kinase 2)” value is on record as −0.70 and the “Log2FC TYMS (Thymidylate synthase)” value is −1.54. Also, the “Log2FC PCNA” value in series [3] (HKB-11, N treatment (3200 µM), 24 h, vs untreated control) is −0.63. The “Log2FC PLPBP (Pyridoxal phosphate homeostasis protein)” value in series [3] (HKB-11, Nisin_3.2 / Control, Qvalue 0.00903294) worked out at 0.58. For the same molecule, the “Log2FC THOC3 (THO complex subunit 3)” value in series [3] (HKB-11, Nisin_3.2 / Control, Qvalue 0.0139626) is listed as -0.58. The “Log2FC MAZ (Myc-associated zinc finger protein)” value in series [3] (HKB-11, Nisin_3.2 / Control, Qvalue 0.0377318) is -0.58. Further, the “Log2FC TXNDC9 (Thioredoxin domain-containing protein 9)” value in series [3] (HKB-11, Nisin_3.2 / Control, Qvalue 0.0383948) is -0.58.
Consider `O=c1oc2cc(O)ccc2c2ccccc12` [UB, Urolithin B], for which the “ROS levels compared to the untreated control” value in series [1] (HKB-11, 500 μM and 250 μM, p ≥ 0.05, n = 3) is given as “minimal changes”. In addition, in series [2], the Metabolism result is given as “extensively metabolised” and the Oral bioavailability result is “moderate oral bioavailability”. Further, in series [3] (setting [5]), the “Log2FC APOC3 (Apolipoprotein C-III)” value stood at 2.04, the “Log2FC C4BPA (C4b-binding protein alpha chain)” value was determined as 4.39, the “Log2FC CLEC11A (C-type lectin domain family 11 member A)” value is given as 3.06 and the “Log2FC COX6C (Cytochrome c oxidase subunit 6C)” value came out at 2.07. In series [3] (setting [5]), the “Log2FC COX7C (Cytochrome c oxidase subunit 7C, mitochondrial)” value came to 2.08; the “Log2FC FGB (Fibrinogen beta chain)” value was 2.14; the “Log2FC GSN (Gelsolin)” value came to 2.26; the “Log2FC HBD (Haemoglobin subunit delta; Haemoglobin subunit beta)” value is 5.94. Further, in series [3] (setting [5]), the “Log2FC HBE1 (Haemoglobin subunit epsilon; gam1; gamma-2)” value turned out to be 5.63, the “Log2FC ITIH2 (Inter-alpha-trypsin inhibitor heavy chain H2)” value is recorded as 2.76, the “Log2FC MAD2L1 (Mitotic spindle assembly checkpoint protein MAD2A)” value is −1.45 and the “Log2FC MT-CO2 (Cytochrome c oxidase subunit 2)” value is 2.34. Moreover, in series [3] (setting [5]), the “Log2FC MT-ND4 (NADH-ubiquinone oxidoreductase chain 4)” value worked out at 2.24, the “Log2FC NDUFA11 (NADH dehydrogenase [ubiquinone] 1 alpha subcomplex subunit 11)” value is 2.18, the “Log2FC PCNA (Proliferating cell nuclear antigen)” value is −0.63 and the “Log2FC PSME3 (Proteasome activator complex subunit 3)” value is reported as −0.59. Besides, in series [3] (setting [5]), the “Log2FC SAMM50 (Sorting and assembly machinery component 50 homolog)” value is recorded as 2.01; the “Log2FC UBE2E1 (Ubiquitin-conjugating enzyme E2 E1; E2 E3; E2 E2)” value is listed as −1.69; the “Log2FC UBE2S (Ubiquitin-conjugating enzyme E2 S)” value is reported as −1.21.
